# Reference: US10940139B2, “Compounds that interact with the Ras superfamily for the treatment of cancers, inflammatory diseases, rasopathies, and fibrotic disease” (Shy Therapeutics LLC, priority 2017, dated 2021)
# System: MAPK phosphorylation in PANC-1 pancreatic cancer cell line
# Experiment: MAPK cell-based phosphorylation assay (cell-direct ELISA, EGF stimulation)
# Conditions: Homo sapiens
# Procedure: Cell lines: Tumor-derived pancreatic cancer cell lines PANC-1 were purchased from ATCC and were maintained according to ATCC recommendation.
# Method: Cells were plated at 7500 cells/well density in 96-wells plate, starved over night, and the small molecules to be tested were added to the cells in the final concentration of 30 μM with 0.3% DMSO for 6 hours incubation at 37° C. For IC50 value determination, serial dilutions of compounds were added to cells under the same conditions. Next, cells were stimulated with 1.5 ng/ml EGF for 15 min. followed by cell fixation with 4% Formaldehyde in PBS at RT for 20 min. Phosphorylation level of MAPK was determined by Cell-direct ELISA.
# Cell-direct ELISA: For each well, cells were permeabilized with PBS-Triton 0.1%, quenched with H2O2 0.6% in PBS-Triton 0.1%, and probed with anti-phospho-MAPK antibodies (R&D Systems) followed by HRP-conjugated secondary antibody (Jackson Immunoresearch, West Grove, Pa.). Next, a solution 50 μM of the fluorescent substrate AmpliFlu Red (Sigma) was added and incubated at RT for 20 min. At the end of the incubation time, fluorescence was measured at 595 nm on a microplate reader (AF2200; Eppendorf, Inc., Hamburg, Germany).
row,SMILES,IC50 [µM]
1,Oc1nc(-c2ccccn2)nc2c(-c3cccc(C(F)(F)F)c3)csc12 [drawing 1212],< 2
2,O=C(c1csc2c(O)nc(-c3ccccn3)nc12)N1CCOC(c2cccc(F)c2)C1 (stereo not drawn) [drawing 1128],> 30
3,CCc1cc(NNC(=O)c2ccc(C#N)cc2)nc(-c2ccccn2)n1 [drawing 1041],2 to 10
4,O=C(c1csc2c(O)nc(-c3ccccn3)nc12)N1CCN(c2ccccc2)CC1 [drawing 1068],2 to 10
5,CC1CN(c2ccccc2)CCN1C(=O)c1csc2c(O)nc(-c3ccccn3)nc12 (stereo not drawn) [drawing 1143],> 30
6,COCC(C)Nc1nc(-c2ccccn2)nc2sc(C)c(-c3ccccc3)c12 (stereo not drawn) [drawing 1040],11 to 30
7,Oc1nc(-c2ccccn2)nc2c(-c3ccsc3)csc12 [drawing 1214],< 2

# Same assay, conditions: Homo sapiens, * = tested at 10 μM
row,SMILES,inhibition at 10 µM [%]
1,COCCNc1nc(-c2nccn2C)nc2sc(-c3ccccc3)c(-c3ccncc3)c12 [drawing 1356],25 to 50
2,CC(C)c1nn(C)cc1-c1csc2c(O)nc(-c3ccccn3)nc12 [drawing 1262],0
3,COc1cccc(-c2csc3c(O)nc(-c4ccccn4)nc23)c1 [drawing 1211],1 to 25
4,COc1nc(-c2ccccn2)nc2c1c(-c1ccccc1)nn2-c1ccccn1 [drawing 1300],25 to 50
5,COc1ccc(COC[C@H]2O[C@@H](c3csc4c(=O)[nH]c(-c5ccccn5)nc34)[C@H](O)[C@@H]2O)cc1 [drawing 1293],0
6,OCC1(c2ccc(-c3nc(-c4ccccn4)nc(-c4ccc(C5(CO)CC5)cc4)c3Oc3ccccc3)cc2)CC1 [drawing 1292],51 to 75
7,Oc1nc(-c2ccccn2)nc2c(-c3ccc(OC4CCCCC4)cc3)csc12 [drawing 1224],25 to 50
8,Nc1cccc(-c2csc3c(O)nc(-c4ccccn4)nc23)n1 [drawing 1274],51 to 75
9,COc1nc(-c2cn(C)cn2)nc2sc(-c3ccncc3)c(-c3ccccc3)c12 [drawing 1291],1 to 25
10,O=C(COCc1ccncc1)Nc1nc(-c2ccccn2)nc2sccc12 [drawing 1185],1 to 25
11,Cc1cnccc1-c1csc2c(O)nc(-c3ccccn3)nc12 [drawing 1225],1 to 25
12,Oc1nc(-c2ccccn2)nc2c(-c3cncc(C(F)F)c3)csc12 [drawing 1268],0
13,Oc1nc(-c2ccccn2)nc2cc(-c3ccccc3Cl)sc12 [drawing 1316],1 to 25
14,COc1ccc(-c2csc3c(O)nc(-c4nccn4C)nc23)cn1 [drawing 1373],51 to 75
15,COc1ccc(-c2c(-c3ccccc3)sc3c(O)nc(-c4nccn4C)nc23)cn1 [drawing 1353],51 to 75
16,Cc1sc2c(O)nc(-c3nccn3C)nc2c1-c1ccc(OCC(C)C)nc1 [drawing 1360],25 to 50
17,Cn1ccnc1-c1nc(NCCOC(F)(F)F)c2c(-c3ccccc3)c(-c3ccccc3)sc2n1 [drawing 1328],76 to 100
18,Nc1nc(O)c2sc(-c3cccc(C(=O)NCc4cccc(O)n4)c3)cc2n1 [drawing 1306],0
19,O=C(c1csc2c(O)nc(-c3ccccn3)nc12)N1CCNC(c2cn[nH]c2)C1 (stereo not drawn) [drawing 1200],25 to 50
20,Oc1nc(-c2ccccn2)nc2c(-c3cccc(C(F)(F)F)c3)csc12 [drawing 1212],76 to 100

row,SMILES,inhibition at 10 µM [%]
1,Cn1cnc(-c2nc(O)c3c(-c4ccccc4)c(-c4ccncc4)sc3n2)c1 [drawing 1288],25 to 50
2,Cn1ccnc1-c1nc(O)c2sc(-c3ccccc3)c(-c3ccccc3Cl)c2n1 [drawing 1355],51 to 75
3,COCCN(C)c1nc(-c2nccn2C)nc2sc(-c3ccccc3)c(-c3ccccc3)c12 [drawing 1326],76 to 100
4,COc1cnc(CNC(=O)c2c(C)sc3c(O)nc(-c4ccccn4)nc23)[nH]c1=O [drawing 1283],0
5,COCCNc1nc(-c2nccn2C)nc2sc(-c3ccccc3)c(-c3ccccn3)c12 [drawing 1382],51 to 75
6,Oc1nc(-c2ccccn2)nc2c(-c3cc(CN4CCCC4)ccc3F)csc12 [drawing 1263],0
7,COCCCNc1nc(-c2nccn2C)nc2sc(-c3ccccc3)c(-c3ccccc3)c12 [drawing 1330],76 to 100
8,COCCNc1nc(-c2ccncn2)nc2sc(-c3ccccc3)c(-c3ccccc3)c12 [drawing 1334],1 to 25
9,COc1cnc(-c2nccn2C)nc1O [drawing 1273],25 to 50
10,Cc1sc2c(O)nc(-c3nccn3C)nc2c1-c1cccc(C(F)(F)F)c1 [drawing 1359],1 to 25
11,Oc1nc(-c2ccccn2)nc2c(Br)c(-c3ccccc3)sc12 [drawing 1313],0
12,Oc1nc(-c2ccccn2)nc2c(C3CCC3)csc12 [drawing 1250],76 to 100
13,Oc1cccc(-c2csc3c(O)nc(-c4ccccn4)nc23)n1 [drawing 1259],51 to 75
14,Nc1nc(O)c2sc(-c3cccc(C(=O)N4CCC(O)C4)c3)cc2n1 (stereo not drawn) [drawing 1303],0
15,Cn1ccnc1-c1nc(O)c2sc(-c3ccccc3)c(-c3cccc(C(F)(F)F)c3)c2n1 [drawing 1352],0
16,CN(C)CCOc1cccc(-c2csc3c(O)nc(-c4ccccn4)nc23)c1 [drawing 1253],76 to 100
17,Cc1sc2c(N)nc(-c3ccccn3)nc2c1Br [drawing 1230],1 to 25
18,COc1cc(C)c(-c2csc3c(O)nc(-c4ccccn4)nc23)cc1C [drawing 1208],1 to 25
19,Oc1nc(-c2ccccn2)nc2c(-c3ccsc3)csc12 [drawing 1214],76 to 100

# Same assay, conditions: Homo sapiens, at 30 μM
row,SMILES,inhibition at 30 µM [%]
1,CCCNC(=O)CN1CCN(c2nc(-c3ccccn3)nc3sc(-c4ccccc4)cc23)CC1 [drawing 1086],76 to 100
2,O=C(CCc1cnn(-c2ccccc2)c1)Nc1nnc(-c2ccccn2)[nH]1 [drawing 992],25 to 50
3,O=C(NCCc1ccc(O)nc1)c1csc2nc(-c3ccccn3)nc(N3CCOCC3)c12 [drawing 1168],1 to 25
4,O=C(Nc1nnc(-c2ccccn2)[nH]1)c1ccc2c(c1)CCO2 [drawing 995],1 to 25
5,Nc1nc(O)c2scc(C(=O)N3CCc4ccccc4CC3)c2n1 [drawing 1063],1 to 25
6,FC(F)(F)c1csc2nc(-c3ccccn3)nc(N3CCOCC3)c12 [drawing 1132],1 to 25
7,COc1ccc(C2CN(C(=O)c3csc4c(O)nc(-c5ccccn5)nc34)CCN2)cc1 (stereo not drawn) [drawing 1151],25 to 50
8,COc1ccnc(-c2nc(O)c3c(Cl)csc3n2)c1 [drawing 1162],1 to 25
9,O=C(CCc1c[nH]c2ccccc12)Nc1nnc(-c2ccccn2)[nH]1 [drawing 1001],25 to 50
10,CCOC(=O)c1ccnc(N2CCC(C)CC2c2ccc(CC)o2)c1[N+](=O)[O-] (stereo not drawn),25 to 50
11,Cc1sc2nc(-c3ccccn3)nc(NCCc3nccn3C)c2c1-c1ccccc1 [drawing 1085],1 to 25
12,COc1ccc2c(c1)CCC2C(=O)Nc1ccnc(-c2ccccn2)n1 (stereo not drawn) [drawing 1159],1 to 25
13,COc1cc(COCC(=O)Nc2ccnc(-c3ccccn3)n2)ccn1 [drawing 1172],25 to 50
14,CC(C)(C)c1nc(C(=O)Nc2nnc(-c3ccccn3)[nH]2)cs1 [drawing 1023],1 to 25
15,COCCC(C)Nc1nc(-c2ccccn2)nc2sccc12 (stereo not drawn) [drawing 1115],25 to 50
16,COCCN(CCOC)c1nc(-c2ccccn2)nc2scc(C(=O)NCCc3cnc(O)nc3)c12 [drawing 1171],25 to 50
17,O=C(c1csc2c(O)nc(-c3ccccn3)nc12)N1CCOC(c2cccc(F)c2)C1 (stereo not drawn) [drawing 1128],1 to 25
18,Brc1csc2nc(-c3ccccn3)nc(N3CCOCC3)c12 [drawing 1079],1 to 25

row,SMILES,inhibition at 30 µM [%]
1,O=C(c1ccccn1)N1CCCc2c(O)nc(-c3ccccn3)nc21 [drawing 1062],1 to 25
2,CCc1cc(NNC(=O)c2ccc(C#N)cc2)nc(-c2ccccn2)n1 [drawing 1041],76 to 100
3,O=C(c1csc2c(O)nc(-c3ccccn3)nc12)N1CCN(Cc2ccccc2)CC1 [drawing 1144],1 to 25
4,O=S(=O)(Oc1cc(C(F)(F)F)cc(C(F)(F)F)c1)N1CCc2ccccc2C1 [drawing 1052],1 to 25
5,CC(C(=O)Nc1ccnc(-c2ccccn2)n1)c1ccc(C#N)cc1 (stereo not drawn) [drawing 1158],1 to 25
6,O=C(c1csc2c(O)nc(-c3ccccn3)nc12)N1CCN(Cc2ccc(O)cc2)CC1 [drawing 1146],25 to 50
7,O=C(c1csc2c(O)nc(-c3ccccn3)nc12)N1CCN(c2ccccc2)CC1 [drawing 1068],76 to 100
8,O=C1CN(c2nc(-c3ccccn3)nc3scc(-c4ccccc4)c23)CCN1 [drawing 1082],1 to 25
9,COc1ccccc1N1CCN(C(=O)c2csc3c(O)nc(-c4ccccn4)nc23)CC1 [drawing 1117],1 to 25
10,O=C(CN1CCN(c2nc(-c3ccccn3)nc3scc(-c4ccccc4)c23)CC1)N1CCCCC1 [drawing 1096],25 to 50
11,CC(C)C(=O)Nc1nc(CC(=O)Nc2nnc(-c3ccccn3)[nH]2)cs1 [drawing 1022],1 to 25
12,CC1CN(c2ccccc2)CCN1C(=O)c1csc2c(O)nc(-c3ccccn3)nc12 (stereo not drawn) [drawing 1143],51 to 75
13,Cc1ccc(CC(=O)Nc2nnc(-c3ccccn3)[nH]2)cn1 [drawing 1012],1 to 25
14,COc1cc(N2CCN(C(=O)c3csc4c(O)nc(-c5ccccn5)nc34)CC2)cc(OC)c1OC [drawing 1141],1 to 25
15,O=C(c1csc2c(O)nc(-c3ccccn3)nc12)N1CCN(c2ccncc2)CC1 [drawing 1069],25 to 50
16,COCC(C)Nc1nc(-c2ccccn2)nc2sc(C)c(-c3ccccc3)c12 (stereo not drawn) [drawing 1040],76 to 100
17,COc1cccc(CN2CCN(C(=O)c3csc4c(O)nc(-c5ccccn5)nc34)CC2)c1 [drawing 1145],25 to 50
